Laboratory results reported in US20080227688A1, “Inhibition of viral replication” (priority 2007, published 2008).
Entries after “also recorded” stand apart in the source; their conditions may differ. *1 amine or outer side, *2 acyl side, *3 side chain or, on linkers, in order; H or OH if unused. Where a SMILES comes first, the peptide text is derived from it. [ ]: non-standard residue; d: D form. The star is where a group is joined. hPhe = N[CH](CCc1ccccc1)C(=O)O; Morpholide = C1CN(*)CCO1; CO = O=C([*:1])[*:2]; CH2F = FC*

Key:
[1] = system: reovirus; format: cell-based, Dearing strain of reovirus serotype 3
[2] = system: HIV type 1 virus; format: cell-based, HIV type 1 strain (NL4-3)
[3] = system: myxoma virus; format: cell-based, myxoma virus (strain Lausanne)
[4] = target: cellular cathepsin B (Homo sapiens, UniProt P07858); conditions: cited from earlier work
[5] = system: influenza A virus; assay: Influenza A infection of Mv1Lu cells, FACS; format: cell-based, Flu type A (A/New Cale/H1N1); conditions: 20 μM, 4 days
[6] = system: reovirus; assay: HT1080 tumor xenograft in SCID mice with intratumoral reovirus, immunohistochemistry of tumor and heart; format: in vivo; conditions: 0.02 mg intratumorally, 16 days post-viral injection
Experimental: FIGS. 4A-4B: Z-FA-FMK blocks reovirus infection in vivo. (FIG. 4A) HT1080 cells were injected subcutaneously into hind flanks of SCID mice. After palpable tumors were established (11 days after implantation), tumors were injected with Live reovirus (L Reo; n=5 tumors), UV-inactivated reovirus (D Reo; n=5 tumors), Z-FA-FMK (FA; n=5 tumors) and Live reovius suspended in Z-FA-FMK solution (Reo+FA; n=5 tumors). Tumor growth was measured externally using calipers. Z-FA-FMK was dissolved in DMSO and administered as 0.02 mg suspended in PBS intratumorally per mouse everyday up to 7 days post viral injection, and every 2 days until completion of the experiment. […] Paraffin sections of tumors and heart tissues were analyzed by indirect immunohistochemical staining using reovirus antiserum as described in the Examples. […]
SCID mice (6-8 weeks, Charles River, Wilmington, Mass.) received a single subcutaneous implantation of 5×10^6 cells of HT1080 cells suspended in PBS. […] Tumor growth was measured externally using calipers and the volume was determined by the equation V=(L×W^2)×0.5, where L is the largest dimension and W is the largest dimension perpendicular to L. Z-FA-FMK was dissolved in DMSO and administered as 0.02 mg suspended in PBS intratumorally per mouse every day up to 7 days post viral injection, and every 2 days until completion of the experiment. […]

[7] = system: reovirus; assay: Electron microscopy of reovirus-infected HT1080 cells; format: cell-based, Dearing strain of reovirus serotype 3; conditions: HT1080, MOI of 40, 20 μM, 48 hr post-infection
Experimental: FIGS. 2A-2B: Electron microscopic analysis of reovirus infected HT1080 cells in the presence or absence of Z-FA-FMK treatment. HT1080 cells grown to 50-70% confluency were infected with reovirus at MOI of 40, then either Z-FA-FMK (20 μM) or control medium was added in the culture medium. After 48 hr culture, cells were prepared for electron microscopic examination as described in the Examples. (FIG. 2A) HT1080 infected with reovirus in the absence of Z-FA-FMK showing scattered virions and viral inclusions (factory) (arrows) in the perinuclear region. Scale represents 500 nm×10,000 (above). […] Scale represents 100 nm×80,000 (FIG. 2B) HT1080 infected with reovirus in the presence of Z-FA-FMK showing scattered reovirus virion particles (arrows) but no reoviral inclusions in the perinuclear region. Scale represents 500 nm×10,000 (above). Scattered virions with empty shell (arrows) are present in perinuclear region (bottom). Scale represents 200 nm×40,000.
EM preparation was performed by the University of Calgary Microscopy & Imaging Facility. Cells grown on glass slides were rinsed briefly with PBS (phosphate buffered saline) and fixed with 4% EM grade glutaraldehyde in 0.1 M cacodylate buffer (pH 7.4) for 1 hr at room temperature (RT). After washing three times with the same buffer, cells were post-fixed in 1% osmium tetroxide buffered with 0.1 M cacodylate for 1 hr at RT. […]

[8] = system: reovirus; conditions: pharmacological inhibition of cellular cathepsin B; cited from earlier work

**Q.** For “Z-Val-Ala-Asp-fluoromethylketone [Z-VAD-FMK]”, which reovirus-mediated cytopathogenicity [1] is on record?
**A.** effectively inhibited reovirus-mediated cytopathogenicity

**Q.** For O=C(CF)C(CCc1ccccc1)NC(=O)C(Cc1ccccc1)NC(=O)N1CCOCC1 (stereo not drawn) [Mu-FhF-FMK, N-Morpholineurea-phenylalanyl-homophenylalanyl-fluoromethylketone] ({Morpholide-CO}-Phe-[hPhe]-CH2F; configuration not given here), which reovirus-mediated cytopathogenicity [1] is on record?
**A.** effectively inhibited reovirus-mediated cytopathogenicity

**Q.** With C[C@H](NC(=O)[C@H](Cc1ccccc1)NC(=O)OCc1ccccc1)C(=O)CF [Z-FA-FMK, N-benzyloxycarbonyl-Phe-Ala-fluoromethylketone] as the compound, how does the “viral replication activity of HIV-1” value [2] read?
**A.** did not affect viral replication activity

**Q.** What about the “GFP expression level of BGMK monolayers” value [3] of the same compound?
**A.** significantly suppressed

**Q.** And the “myxoma infectivity (GFP expressing cells)” value [3]?
**A.** inhibitory effects were not detectable

**Q.** And the “myxoma virus foci development” value [3]?
**A.** significantly suppressed as Z-FA-FMK dosages were increased; also recorded: the inhibition of foci development is more readily detectable

**Q.** What about the “inactivation of cathepsin B” value [4] of the same compound?
**A.** potent inactivator of cellular cathepsin B

**Q.** And the “viral replication activity of influenza A” value [5]?
**A.** did not affect viral replication activity

**Q.** And the “reovirus replication activity in heart tissue (immunohistochemistry)” value [6]?
**A.** effectively blocked

**Q.** And the “reovirus replication activity in tumor tissue (immunohistochemistry)” value [6]?
**A.** effectively blocked

**Q.** What about the “viral factory formation (EM)” value [7] of the same compound?
**A.** did not form these viral factories

**Q.** And the “virion morphology (EM)” value [7]?
**A.** all of the scattered viral particles contained empty capsids

**Q.** And the “reoviral replication potential by FACS (reoviral antigen)” value [1]?
**A.** effectively suppressed reoviral replication potential in a dose-dependent manner

**Q.** What about the “reovirus replication (cytopathic morphology, viral antigens by western blotting and FACS)” value [1] of the same compound?
**A.** completely blocked reovirus replication

**Q.** With CCCNC(=O)[C@H]1O[C@@H]1C(=O)N[C@H](C(=O)N1CCC[C@H]1C(=O)OC)[C@@H](C)CC [CA-074Me] as the compound, how does the reovirus viral yield [8] read?
**A.** decreased viral yields yet not a complete blockage of viral yield
